In BigSolDB 2.1:

CCCCS(=O)(=O)N[C@@H](Cc1ccc(OCCCCC2CCNCC2)cc1)C(=O)O
solubility (mole fraction)
Conditions | 278.15 K | 283.15 K | 288.15 K | 293.15 K | 298.15 K | 303.15 K | 308.15 K | 313.15 K | 318.15 K | 323.15 K
in ethanol | 0.000129 | 0.000156 | 0.000183 | 0.000216 | 0.00025 | 0.000288 | 0.000329 | 0.000373 | 0.000427 | 0.00049
in ethylene glycol | 4.7e-05 | 5.7e-05 | 6.77e-05 | 8.02e-05 | 9.46e-05 | 0.000109 | 0.000125 | 0.000142 | 0.00016 | 0.000181
in isopropanol | 7.48e-05 | 9.32e-05 | 0.000108 | 0.00013 | 0.000153 | 0.000176 | 0.0002 | 0.00023 | 0.000265 | 0.000301
in methanol | 0.000306 | 0.000375 | 0.000443 | 0.00052 | 0.000617 | 0.00071 | 0.000836 | 0.000957 | 0.0011 | 0.00125
in water | 9.32e-07 | 1.1e-06 | 1.32e-06 | 1.55e-06 | 1.83e-06 | 2.08e-06 | 2.42e-06 | 2.75e-06 | 3.14e-06 | 3.59e-06
